Measured values reported in article PMC12635197, “Discovery of first-in-class inhibitors of the TRF1:TIN2 protein:protein interaction by fragment screening” (Scientific Reports, 2025).
Where no end group is shown, it is not given here. FAM = 5(6)-carboxyfluorescein

Columns and labels:
TIN2 TBM (Homo sapiens) = TIN2 TBM (Homo sapiens) (UniProt Q9BSI4); settings: cited from earlier work
[1] = Fragment solubility assay (quantitative 1H NMR); assay type: physicochemical; settings: Supplementary Table 1
Experimental: Aqueous solubility test samples were prepared by adding 3.6 µL compound (50 mM stock in 100% DMSO-d6) to 176.4 µL NMR buffer in a microcentrifuge tube. The samples were incubated overnight and transferred to a 3-mm NMR tube (Bruker, Part No. Z112272). ^1H NMR spectra were recorded, with the DMSO and water signals dampened. 1 mM caffeine (Sigma, C1778 in PBS (pH 7.4) with 1% DMSO-d6) was used as a standard to quantify the ligand signals and determine the concentration of samples.
NMR data were collected on a Bruker Avance Neo 600-MHz spectrometer equipped with a 5 mm TCI-CryoProbe. The ^1H spectrum was referenced to the internal deuterated solvent. The operating frequency for ^1H was 600 MHz. All NMR data were acquired at the temperature of 298 K. All data were acquired and processed using Bruker Topspin 4.0. The quantitative ^1H-NMR spectrum was acquired using a Bruker standard 1D lc1pngppsf2 pulse sequence with 32 scans. The sweep width was 6.2 ppm with O1P set to 8.8 ppm, and the FID contained 16k time-domain data points. Relaxation delay was set to 20 s. Water signal was suppressed.

TRF1TRFH [2] = biological target: T1, TRF1TRFH (Homo sapiens, UniProt P54274); test: LO-NMR CPMG assay (relaxation-edited), singletons; assay type: binding; settings: single experiment; for CPMG reduction: average peak intensity reduction on addition of TRF1TRFH, 250 µM ligand, 20 µM protein; for CPMG recovery: net recovery of peak intensity on addition of TIN2TBM peptide (40 µM) to compound plus protein
T1 construct: encoding residues 47–268, UniProt identifier P54274-1; His6-MBP (TEV-cleavable) (N, cleaved yes); made in house; host or cells: E. coli BL21-CodonPlus(DE3)-RIL
T1 sequence (P54274 47-268): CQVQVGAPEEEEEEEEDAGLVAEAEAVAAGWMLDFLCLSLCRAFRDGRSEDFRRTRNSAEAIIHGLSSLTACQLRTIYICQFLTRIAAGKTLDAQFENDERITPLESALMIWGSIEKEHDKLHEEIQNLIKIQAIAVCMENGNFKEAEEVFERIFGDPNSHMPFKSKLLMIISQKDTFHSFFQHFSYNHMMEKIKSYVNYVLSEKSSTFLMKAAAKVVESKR
Experimental: We next used a LO-NMR CPMG assay to orthogonally validate XChem hits in solution, aiming to eliminate false positives and rank hit matter for follow-up studies. Compounds were tested as singletons and prepared in two samples containing either compound alone (sample 1) or compound + TRF1TRFH (sample 2).
The fragment screen by LO-NMR was carried out using conditions described previously, with some modifications. Fragments were dispensed in triplicate into a 384-well plate using an Echo 550 liquid handler to give a final ligand concentration of 250 µM (total sample volume of 40 µL). 40 µL of TRF1TRFH protein (in NMR buffer; 20 µM final protein concentration in the assay) were added to the ‘protein’ samples; 40 µL of TRF1TRFH protein and TIN2TBM peptide (21-mer, Ac-[…]-CONH2; 40 µM final concentration in the assay) were both added to the ‘competitor’ samples; 40 µL NMR buffer were added to the ‘compound-only’ samples. Solutions were transferred to 1.7-mm NMR tubes using a Bruker SamplePro Tube robotics system. ^1H NMR spectra were recorded on a Bruker AVIII 500 MHz spectrometer at 298 K, equipped with a 1.7-mm TXI probe, with samples in 1.7-mm SampleJET NMR tubes (Bruker). DMSO and water signals were dampened. A relaxation spin filter was applied at 400 ms. Data were processed using Bruker Topspin 4.0. Lines were broadened with LB = 3.0, and the baseline was corrected between 6.0 and 10.0 ppm.
The data were then analysed using the MNova Screen software. Only peaks between 5.5 and 9.5 ppm were considered. Peaks with a height of < 5% maximum peak height within the region of interest were considered noise, and the minimum matched peak level was set at > 51%. The relative peak intensity change (I) was calculated for all peaks in the 5.5–9.5 ppm region, for each compound, as described previously. The average integral for all peaks between 6.0 and 10.0 ppm was calculated, and the differences between compound-only, compound-plus-protein, and compound-plus-protein-plus-competitor samples were compared. The net recovery was calculated by subtracting the reduction in peak integral of the compound-plus-protein samples from the compound-plus-protein-plus-competitor samples.
For hit validation, relaxation-edited LO-NMR experiments were repeated as described above on single compounds instead of fragment cocktails.

TRF1TRFH [3] = biological target: T1, TRF1TRFH; test: Crystal soaking of TRF1TRFH crystals; settings: soaking into TRF1TRFH crystals; Supplementary Table 1
Description: Attempts to soak TRF1TRFH crystals with the commercially available analogues of the XChem hit 5 were also unsuccessful. Only one slightly smaller analogue (22) could be soaked into TRF1TRFH crystals, albeit with an ambiguous binding mode. […] In the case of compound 5, we observed a hydrogen bond between the amino group of the fragment and a backbone carbonyl in the neighbouring protein chain (Fig. 2i). […] Additionally, the pocket normally occupied by the conserved phenylalanine residue of the TIN2 F-X-L-X-P motif was fully obstructed by a crystal contact with a TRF1TRFH copy in an adjacent asymmetric unit, further limiting the possibility of obtaining XChem hits outside of the leucine pocket.
TRF1TRFH crystals in the P3_121 space group were grown by sitting drop vapour diffusion in SWISSCI 3-drop plates using similar crystallisation conditions to those described previously. The total drop volume was 300 nL, consisting of 150 nL of TRF1TRFH (31.2 mg/mL) and 150 nL of reservoir solution (1% PEG8000, 100 mM MES pH 6.0, 1–12 mM Mg(OAc)2, 10–15% glycerol), whilst the reservoir volume was 35 µL. Crystallisation plates were set up using an SPT Labtech mosquito Xtal2 liquid handler. Cuboid-shaped crystals grew to their maximum size (300 μm across) within 24 h. Crystals were cryoprotected through the addition of 180 nL of 40% glycerol to the crystal drop prior to harvesting, giving a final glycerol concentration of […] (accounting for the glycerol already in the crystallisation conditions). The crystals were then flash-frozen in liquid nitrogen, and data were collected at the Diamond Light Source beamlines I04 and I04-1 and processed automatically using the Xia2 Dials pipeline[53],[54]. The TRF1TRFH structure was solved by molecular replacement in Phaser MR[55] within CCP4[56] using the previously published TRF1TRFH structure as a search model (PDB: 1H6O)[31], after having first stripped the search model of solvent molecules and ligands. Structure refinement was done using Refmac[57] and Buster[36], and model correction and building was done using Coot 0.9.6[35].
The DSi-Poised library (768 fragment, Enamine)[32], the EUbOPEN DSiP extension library (108 fragments) and the FragLite library (31 fragments)[33] were screened against TRF1TRFH crystals. Compounds at 500 mM in DMSO stocks were dispensed into selected crystal drops as singletons using an Echo 550 liquid handler to give a final concentration of 50 mM (10% DMSO final concentration). After incubation for 1 h at 20 °C, 180 nL of glycerol (40% stock, final drop concentration 28.8–32.5%) were added to each drop immediately prior to crystal harvesting and flash-freezing in liquid nitrogen.
Data were collected on the I04-1 beamline at Diamond Light Source. […]

[4] = biological target: T2, TRFH domain of TRF1 (TRF1_(TRFH)), residues 47–268 (human, UniProt P54274-1 47-268); test: fluorescence polarisation; direct titration: TRF1_(TRFH) 20 to 0.02 µM (11 points) against 25 nM TIN2-FAM; 25 mM HEPES-NaOH pH 7.5, 100 mM NaCl, 1 mM TCEP, 0.05% w/v CHAPS; 1 h at room temperature; settings: both partners purified
T2 construct: cDNA codon-optimised for E. coli; also called TRF homology (TRFH) domain; source: E. coli BL21-CodonPlus(DE3)-RIL, purified (HisTrap, TEV cleavage, second HisTrap, Superdex 200 SEC); not shown: His6, N-terminal, cleaved; MBP, N-terminal, cleaved
T2 sequence (looked up): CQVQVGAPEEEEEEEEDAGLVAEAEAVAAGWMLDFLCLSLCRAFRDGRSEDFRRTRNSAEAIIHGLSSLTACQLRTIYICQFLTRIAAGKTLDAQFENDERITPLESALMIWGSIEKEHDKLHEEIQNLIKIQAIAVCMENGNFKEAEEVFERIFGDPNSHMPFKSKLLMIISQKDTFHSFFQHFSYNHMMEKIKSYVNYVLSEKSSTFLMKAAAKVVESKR

[5] = biological target: T2, TRFH domain of TRF1 (TRF1_(TRFH)), …; test: ligand-observed NMR (CPMG / R2 relaxation) competition; fragment 250 µM with 20 µM TRF1_(TRFH), with or without 40 µM TIN2TBM peptide as competitor; NMR buffer; 298 K; settings: both partners purified
[6] = biological target: T3, (StrepII)2-TEV-tagged TIN2, subunit of recombinant shelterin (UniProt Q9BSI4-1 1-451); test: mass photometry; SEC-purified shelterin without compound; complex of around 700 kDa; 50 mM HEPES-NaOH pH 8.0, 300 mM NaCl; settings: both partners purified
T3 construct: TIN2, gene NM_001099274.1, codon-optimised; a TEV site lies between tag and protein; The separately made control protein is called TIN2L; The discussion says that the complex carries a short peptidic tag on TIN2; source: Sf9, co-expressed with the other shelterin subunits (MultiBac baculovirus), purified (StrepTrap, serial SEC)
T3 sequence (looked up): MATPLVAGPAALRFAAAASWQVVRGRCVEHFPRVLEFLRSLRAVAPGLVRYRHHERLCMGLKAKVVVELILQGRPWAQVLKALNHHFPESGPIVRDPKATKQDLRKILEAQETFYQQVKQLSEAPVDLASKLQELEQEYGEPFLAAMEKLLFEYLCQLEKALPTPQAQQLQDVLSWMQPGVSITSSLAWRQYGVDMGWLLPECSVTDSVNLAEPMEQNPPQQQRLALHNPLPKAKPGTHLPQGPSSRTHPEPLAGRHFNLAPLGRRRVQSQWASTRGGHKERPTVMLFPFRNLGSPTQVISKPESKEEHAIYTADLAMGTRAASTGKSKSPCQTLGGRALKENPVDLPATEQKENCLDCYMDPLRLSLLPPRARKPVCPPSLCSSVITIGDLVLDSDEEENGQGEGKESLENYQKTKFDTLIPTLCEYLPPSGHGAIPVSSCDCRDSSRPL

[7] = biological target: T4, TRF1 (telomeric repeat-binding factor 1), full length, subunit of recombinant shelterin (human), P54274; test: mass photometry; SEC-purified shelterin 1.25 µM incubated 1 h at room temperature with 100-300 µM compound 40, cross-linked with 0.1% glutaraldehyde, diluted to 50 nM; settings: remark: other sources report otherwise
T4 chain: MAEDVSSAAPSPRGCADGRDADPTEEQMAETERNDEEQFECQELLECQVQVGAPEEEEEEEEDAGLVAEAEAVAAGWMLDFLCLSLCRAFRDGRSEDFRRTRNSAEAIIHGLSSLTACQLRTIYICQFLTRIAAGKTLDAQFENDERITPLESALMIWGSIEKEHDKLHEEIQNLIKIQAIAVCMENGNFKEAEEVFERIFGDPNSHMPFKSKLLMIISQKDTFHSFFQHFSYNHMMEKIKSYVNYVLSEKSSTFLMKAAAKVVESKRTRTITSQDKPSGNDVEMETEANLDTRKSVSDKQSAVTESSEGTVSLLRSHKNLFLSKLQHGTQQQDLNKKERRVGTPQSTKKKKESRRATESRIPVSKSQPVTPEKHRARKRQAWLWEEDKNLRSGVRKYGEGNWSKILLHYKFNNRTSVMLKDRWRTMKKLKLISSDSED

TRF1 TRFH (from UniProt P54274)
Kd (TIN2 TBM (Homo sapiens)): 300 nM

COc1cc2nc(N)sc2cc1OC [Compound 21]
Aq. Sol. [1]: 190 µM
CPMG reduction (TRF1TRFH [2]): 14%
CPMG recovery (TRF1TRFH [2]): 12%
Crystal structure (TRF1TRFH [3]): No

COc1ccc2sc(C)nc2c1 [Compound 22]
Aq. Sol. [1]: 790 µM
CPMG reduction (TRF1TRFH [2]): 18%
CPMG recovery (TRF1TRFH [2]): 9%
Crystal structure (TRF1TRFH [3]): Yes

Nc1nc2cc3c(cc2s1)OCO3 [Compound 24]
Aq. Sol. [1]: 400 µM
CPMG reduction (TRF1TRFH [2]): 28%
CPMG recovery (TRF1TRFH [2]): 11%
Crystal structure (TRF1TRFH [3]): No

B1: TIN2TBM peptide labelled with an N-terminal 5(6)-carboxyfluorescein (TIN2-FAM) (peptide)
chain: {FAM}-RHFNLAPLGRRRVQSQWASTR
Kd [4]: 400 nM

B2: TIN2TBM peptide (21-mer, Ac-RHFNLAPLGRRRVQSQWASTR-CONH2) (peptide)
peptide: Ac-RHFNLAPLGRRRVQSQWASTR-NH2
notes: limits worked out from L260 of the F-X-L-X-P motif
binding result [5]: binds

B3: TRF1 (telomeric repeat-binding factor 1), full length, subunit of recombinant shelterin (natural protein, human, UniProt P54274-1 1-439, looked up)
chain: MAEDVSSAAPSPRGCADGRDADPTEEQMAETERNDEEQFECQELLECQVQVGAPEEEEEEEEDAGLVAEAEAVAAGWMLDFLCLSLCRAFRDGRSEDFRRTRNSAEAIIHGLSSLTACQLRTIYICQFLTRIAAGKTLDAQFENDERITPLESALMIWGSIEKEHDKLHEEIQNLIKIQAIAVCMENGNFKEAEEVFERIFGDPNSHMPFKSKLLMIISQKDTFHSFFQHFSYNHMMEKIKSYVNYVLSEKSSTFLMKAAAKVVESKRTRTITSQDKPSGNDVEMETEANLDTRKSVSDKQSAVTESSEGTVSLLRSHKNLFLSKLQHGTQQQDLNKKERRVGTPQSTKKKKESRRATESRIPVSKSQPVTPEKHRARKRQAWLWEEDKNLRSGVRKYGEGNWSKILLHYKFNNRTSVMLKDRWRTMKKLKLISSDSED
notes: TRF1, gene NM_017489.2, codon-optimised; the UniProt identifier is printed for the TRFH construct of the same protein; Further details of the shelterin construct 'to be reported elsewhere'; also called full-length TRF1
stoichiometry N [6]: 2 TRF1 per TIN2
stoichiometry N [7]: 2
